From patent US8557737B2, “Methods of altering poppy characteristics” (priority 2005, dated 2013)

Assays:
Type in all cases: in vivo, Papaver somniferum
[1] = tested on: poppy crops; assay: Example 16: field trial, metsulfuron-methyl, mesosulfuron-methyl and triasulfuron at row cover and ground cover/early run-up, morphine crop; settings: Trt 5: COMPOUND 2 150 MG/HA + ACTIVATOR .125% V/V at RC and GC/ERU
Procedure: (§1) All trials were conducted on poppy crops. Seed was treated with Thiram (5.6 g of Thiram 800/kg seed) and Apron (4 g/kg) and sown at a rate of approximately 750 g/ha. Fertilisers were applied at sowing. Most commonly, either 50:50 lime:superphosphate/triple superphosphate at 125 kg/ha, or lime:superphosphate at 250 kg/ha, were mixed with seed and drilled at a depth of 15 mm. In the same operation, NPK (nitrogen:phosphorus:potassium), at various rates, was banded 75 mm below the seed, unless otherwise stated. All crops were subjected to herbicide sprays for weed control, fungicide sprays for disease control, insecticide sprays if appropriate and were irrigated as required.
(§2) All spray applications were made with a precision sprayer, using Silvan Lurmark flat-fan, low-drift nozzles (LD110-0015). Spray equipment was calibrated to deliver 153 L water/ha.
(§3) At harvest, a 2 m×4 m quadrat was placed in each plot (3 m×6 m, unless otherwise stated) and capsules hand-picked from this area. Capsules were broken up, seed and capsule material separated and weighed. Capsule moisture readings were taken with a moisture meter. Alkaloid yield data were calculated on Pesticide Research Manager (version 5 for Windows) using the formulae below. Briefly, capsule weight was adjusted for moisture to a dry weight, 5% of seed weight was added to this (this amount of capsule material regularly occurs in seed samples after processing) to give a capsule weight per plot. Seed weight was adjusted to 95% of crude weight. Straw weights were determined by multiplying dry capsule weight by 1.3 (estimated amount of stem material in a commercial harvest) and adjusted to 11% moisture. When Lontrel was applied to crops exact capsule and seed weight data were entered. Analyses of variance and a Multiple Range Test were performed on data using Pesticide Research Manager.
Trial to evaluate applications of metsulfuron-methyl (Compound 1), mesosulfuron-methyl (Compound 2) and triasulfuron (Compound 3), in a morphine crop. Treatment sprays were applied to crop at row cover and ground cover/early run-up, respectively. Plant heights were assessed 5 weeks after last application and lodging was assessed at capsule harvest.

[2] = tested on: poppy crops; assay: Example 17: field trial, triasulfuron, mesosulfuron-methyl and metsulfuron-methyl at early run-up and mid-late run-up, morphine crop; settings: Trt 5: COMPOUND 2 150 MG/HA + ACTIVATOR .125% V/V at ERU and M-LRU
Procedure: as §1, §2, §3
Trial to evaluate applications of triasulfuron, mesosulfuron-methyl and metsulfuron-methyl, in a morphine crop. Treatment sprays were applied to with crop at early run-up and mid-late run-up, respectively. Plant heights were measured on 6 weeks after last application and lodging was assessed at capsule harvest.

[3] = tested on: poppy crops; assay: Example 9: field trial, mesosulfuron-methyl and metsulfuron-methyl, morphine crop; settings: for LODGING: assessed on the day of capsule harvest; for HEIGHT: measured at green capsule stage
Procedure: as §1, §2, §3
Trial to evaluate applications of mesosulfuron-methyl (Compound 2) and metsulfuron-methyl (Compound 1), in a morphine crop. Treatment sprays were applied to crop at ground cover, late run-up and early bud-emergence, respectively. Plant heights were measured at green capsule stage, and lodging assessed on the day of capsule harvest.

[4] = tested on: poppy crops; assay: Example 18: field trial, triasulfuron, mesosulfuron-methyl and metsulfuron-methyl at row cover, mid run-up and early hook, morphine crop; settings: Trt 5: COMPOUND 2 150 MG/HA + ACTIVATOR .125% V/V at RC, MRU and LRU
Procedure: as §1, §2, §3
Trial to evaluate applications of triasulfuron, mesosulfuron-methyl and metsulfuron-methyl, in a morphine crop. […] Plant heights were measured 5 weeks after last application and lodging at capsule harvest.

[5] = COMPOUND 2 390 MG/HA + ACTIVATOR .125 % V/V at GC and EBE
[6] = COMPOUND 2 390 MG/HA + ACTIVATOR .125 % V/V at GC, LRU and EBE

For `COC(=O)c1ccc(CNS(C)(=O)=O)cc1S(=O)(=O)NC(=O)Nc1nc(OC)cc(OC)n1` [Compound 2, mesosulfuron-methyl], the “CAPS/SEED RATIO” value [1] was 0.825 c, the “CROP WEIGHT” value [1] was 3.65 ab t/ha and the MORPHINE [1] was 43.77 ab kg/ha. For the same molecule, the SEED [1] was 1671 b kg/ha, the STRAW [1] was 1976 ab kg/ha and the “STRAW MORPHINE” value [1] was 2.21 a %. For the same molecule, the “PLANT HEIGHT” value ([1]; 5 weeks after last application) was 101.6 b cm, the “CAPS/SEED RATIO” value [2] was 2.315 days and the “CROP WEIGHT” value [2] was 2.57 b t/ha. For the same molecule, the MORPHINE [2] was 41.97 b kg/ha, the SEED [2] was 612 b kg/ha and the STRAW [2] was 1910 b kg/ha. For the same molecule, the “STRAW MORPHINE” value [2] was 2.23 b %, the “PLANT HEIGHT” value ([2]; 6 weeks after last application) was 104.0 b cm and the LODGING ([2]; at capsule harvest) was 2.8 b %. For the same molecule, the “CAPSULE/SEED RATIO” value [3, 5] was 2.084 b, the “CROP WEIGHT” value [3, 5] was 1.80 c t/ha and the MORPHINE [3, 5] was 26.41 b kg/ha. For the same molecule, the SEED [3, 5] was 460 b kg/ha, the STRAW [3, 5] was 1342 c kg/ha and the “STRAW MORPHINE” value [3, 5] was 2.10 a %. For the same molecule, the LODGING [3, 5] was 6.5 bc %, the HEIGHT [3, 5] was 96.0 ab cm and the “CAPSULE/SEED RATIO” value [3, 6] was 1.854 b. For the same molecule, the “CROP WEIGHT” value [3, 6] was 1.16 d t/ha, the MORPHINE [3, 6] was 15.27 c kg/ha and the SEED [3, 6] was 336 b kg/ha. For the same molecule, the STRAW [3, 6] was 827 d kg/ha, the “STRAW MORPHINE” value [3, 6] was 2.03 a % and the LODGING [3, 6] was 11.0 ab %. For the same molecule, the HEIGHT [3, 6] was 89.3 b cm, the “CAPS/SEED RATIO” value [4] was 1.071 b and the “CROP WEIGHT” value [4] was 3.25 a t/ha. The MORPHINE [4] was 42.83 b kg/ha, the SEED [4] was 1281 b kg/ha and the STRAW [4] was 1917 b kg/ha. For the same molecule, the “STRAW MORPHINE” value [4] was 2.23 b %, the “PLANT HEIGHT” value ([4]; 5 weeks after last application) was 96.4 b cm and the LODGING ([4]; at capsule harvest) was 2.8 a %.
